Assays:
[1] = Metabolic stability in human liver microsomes assessed as half life in presence of NADPH measured upto 60 mins by LC-MS/MS analysis; assay type: ADME, Microsome
[2] = Metabolic stability in human liver microsomes assessed as half life in presence of NADPH measured upto 60 mins in presence of 5 mM BNPP carboxylesterase inhibitor by LC-MS/MS analysis; assay type: ADME, Microsome; details: with BNPP (carboxylesterase inhibitor)
[3] = Ratio of half life in human liver microsomes in presence of ABT to t1/2 in human liver microsomes absence of ABT; assay type: ADME, Microsome
[4] = Ratio of half life in human liver microsomes in presence of BNPP to t1/2 in human liver microsomes absence of BNPP; assay type: ADME, Microsome
[5] = Stability in human plasma assessed as half life at pH 7.4 measured upto 5 hrs by LC-MS/MS analysis; assay type: ADME, cell-free
[6] = Metabolic stability in human liver microsomes assessed as half life in presence of NADPH measured upto 60 mins in presence of 2.5 mM ABT cytochrome P450 inhibitor by LC-MS/MS analysis; assay type: ADME, Microsome; details: with ABT (cytochrome P450 inhibitor)
[7] = Metabolic stability in human liver microsomes assessed as intrinsic clearance measured per mg of protein in presence of NADPH measured upto 60 mins in presence of 2 uM ketoconazole by LC-MS/MS analysis; assay type: ADME, Microsome; details: 1 h
[8] = Metabolic stability in human liver microsomes assessed as intrinsic clearance measured per mg of protein in presence of NADPH measured upto 60 mins in presence of 10 uM montelukast by LC-MS/MS analysis; assay type: ADME, Microsome; details: 1 h
[9] = Metabolic stability in human liver microsomes assessed as intrinsic clearance measured per mg of protein in presence of NADPH measured upto 60 mins in presence of 50 uM furafylline by LC-MS/MS analysis; assay type: ADME, Microsome; details: 1 h
[10] = Metabolic stability in human liver microsomes assessed as intrinsic clearance measured per mg of protein in presence of NADPH measured upto 60 mins in presence of 8 uM quinidine by LC-MS/MS analysis; assay type: ADME, Microsome; details: 1 h
[11] = Metabolic stability in human liver microsomes assessed as half life in presence of NADPH measured upto 60 mins in presence of 10 uM sulfaphenazole by LC-MS/MS analysis; assay type: ADME, Microsome; details: with sulfaphenazole
[12] = Metabolic stability in human liver microsomes assessed as half life in presence of NADPH measured upto 60 mins in presence of 2 uM ticlopidine by LC-MS/MS analysis; assay type: ADME, Microsome; details: with ticlopidine
[13] = Metabolic stability in human liver microsomes assessed as half life in presence of NADPH measured upto 60 mins in presence of 2 uM ketoconazole by LC-MS/MS analysis; assay type: ADME, Microsome; details: with ketoconazole
[14] = Metabolic stability in human liver microsomes assessed as half life in presence of NADPH measured upto 60 mins in presence of 10 uM montelukast by LC-MS/MS analysis; assay type: ADME, Microsome; details: with montelukast
[15] = Metabolic stability in human liver microsomes assessed as half life in presence of NADPH measured upto 60 mins in presence of 8 uM quinidine by LC-MS/MS analysis; assay type: ADME, Microsome; details: with quinidine
[16] = Metabolic stability in human liver microsomes assessed as half life in presence of NADPH measured upto 60 mins in presence of 50 uM furafylline by LC-MS/MS analysis; assay type: ADME, Microsome; details: with furafylline
[17] = Metabolic stability in human liver microsomes assessed as intrinsic clearance measured per mg of protein in presence of NADPH measured upto 60 mins in presence of 10 uM sulfaphenazole by LC-MS/MS analysis; assay type: ADME, Microsome; details: 1 h
[18] = Metabolic stability in human liver microsomes assessed as intrinsic clearance measured per mg of protein in presence of NADPH measured upto 60 mins in presence of 2 uM ticlopidine by LC-MS/MS analysis; assay type: ADME, Microsome; details: 1 h

Structure (SMILES) | half-life [1] | half-life [2] | Ratio [3] | Ratio [4] | half-life [5] | half-life [6] | CLint [7] | CLint [8] | CLint [9] | CLint [10] | half-life [11] | half-life [12] | half-life [13] | half-life [14] | half-life [15] | half-life [16] | CLint [17] | CLint [18]
O=C(CCCCCCSP(=O)(c1ccccc1)c1ccccc1)Nc1nc(-c2ccc(F)cc2)cs1 | 0.92 min | 24.5 min | 37.24 | 26.7 | > 300 min | 34.2 min | – | – | – | – | – | – | – | – | – | – | – | –
CC(C)(C)C(=O)NCSCCCCCCC(=O)Nc1nc(-c2ccc(F)cc2)cs1 | 1.75 min | 27.6 min | 101.23 | 13.27 | > 300 min | 211 min | 74 µL/min/mg | 1140 µL/min/mg | 1490 µL/min/mg | 1470 µL/min/mg | 1.41 min | 1.38 min | 28.5 min | 1.84 min | 1.43 min | 1.41 min | 1490 µL/min/mg | 1520 µL/min/mg
CCCCSSCCCCCCC(=O)Nc1nc(-c2ccc(F)cc2)cs1 | 6.08 min | 10.1 min | 2.78 | 1.66 | > 300 min | 16.9 min | – | – | – | – | – | – | – | – | – | – | – | –
O=C(CCCCCCSSCCCCCCC(=O)Nc1nc(-c2ccc(F)cc2)cs1)Nc1nc(-c2ccc(F)cc2)cs1 | – | – | – | – | 247 min | – | – | – | – | – | – | – | – | – | – | – | – | –
CC(=O)NCSCCCCCCC(=O)Nc1nc(-c2ccc(F)cc2)cs1 | 6.81 min | 81.4 min | 7.71 | 9.53 | > 300 min | 65.8 min | 93 µL/min/mg | 150 µL/min/mg | 253 µL/min/mg | 243 µL/min/mg | 9.66 min | 8.09 min | 22.5 min | 14 min | 8.68 min | 8.31 min | 218 µL/min/mg | 260 µL/min/mg
CC(C)(C)SSCCCCCCC(=O)Nc1nc(-c2ccc(F)cc2)cs1 | 12.5 min | 15.8 min | 2.13 | 1.26 | > 300 min | 26.7 min | – | – | – | – | – | – | – | – | – | – | – | –
O=C(CCCCCCSSC1CCCCC1)Nc1nc(-c2ccc(F)cc2)cs1 | 18.9 min | – | – | – | > 300 min | – | – | – | – | – | – | – | – | – | – | – | – | –
CC(C)N(C(=O)SCCCCCCC(=O)Nc1nc(-c2ccc(F)cc2)cs1)C(C)C | 1.27 min | 17.1 min | 9.6 | 2.03 | > 300 min | 81.1 min | 67 µL/min/mg | 1680 µL/min/mg | 1380 µL/min/mg | 1840 µL/min/mg | 1.53 min | 1.39 min | 31.5 min | 1.25 min | 1.15 min | 1.52 min | 1370 µL/min/mg | 1520 µL/min/mg
CCCCCCSSCCCCCCC(=O)Nc1nc(-c2ccc(F)cc2)cs1 | 11.9 min | – | – | – | > 300 min | – | – | – | – | – | – | – | – | – | – | – | – | –
CCCCCNC(=O)SCCCCCCC(=O)Nc1nc(-c2ccc(F)cc2)cs1 | 5.5 min | – | – | – | > 300 min | – | – | – | – | – | – | – | – | – | – | – | – | –
COP(=O)(OC)SCCCCCCC(=O)Nc1nc(-c2ccc(F)cc2)cs1 | 9.85 min | 165 min | 4.46 | 16.8 | > 300 min | 44 min | – | – | – | – | – | – | – | – | – | – | – | –
CCOP(=O)(OCC)SCCCCCCC(=O)Nc1nc(-c2ccc(F)cc2)cs1 | 2.14 min | 54.5 min | 8.2 | 18.22 | > 300 min | 24.5 min | – | – | – | – | – | – | – | – | – | – | – | –

Now from value to molecule:

half-life [1] | half-life [2] | Ratio [3] | Ratio [4] | half-life [5] | half-life [6] | CLint [7] | CLint [8] | CLint [9] | CLint [10] | half-life [11] | half-life [12] | half-life [13] | half-life [14] | half-life [15] | half-life [16] | CLint [17] | CLint [18] | Structure (SMILES)
2.34 min | 36.3 min | 0.74 | 4.63 | > 300 min | 5.78 min | – | – | – | – | – | – | – | – | – | – | – | – | O=C(CCCCCCSC(=O)c1ccccc1)Nc1nc(-c2ccc(F)cc2)cs1
5.77 min | 14.5 min | 0.66 | 2.52 | > 300 min | 3.82 min | – | – | – | – | – | – | – | – | – | – | – | – | O=C(CCCCCCSC(=O)c1ccc(C(F)(F)F)cc1)Nc1nc(-c2ccc(F)cc2)cs1
1.17 min | 9.11 min | 0.48 | 7.77 | 160 min | 0.56 min | – | – | – | – | – | – | – | – | – | – | – | – | CCC(=O)SCCCCCCC(=O)Nc1nc(-c2ccc(F)cc2)cs1
0.57 min | 5.78 min | 0.93 | 10.1 | 151 min | 0.53 min | – | – | – | – | – | – | – | – | – | – | – | – | CC(=O)SCCCCCCC(=O)Nc1nc(-c2ccc(F)cc2)cs1
– | – | – | – | 179 min | – | – | – | – | – | – | – | – | – | – | – | – | – | CCCCC(=O)SCCCCCCC(=O)Nc1nc(-c2ccc(F)cc2)cs1
10.8 min | – | – | – | > 300 min | – | – | – | – | – | – | – | – | – | – | – | – | – | COc1ccc(C(=O)SCCCCCCC(=O)Nc2nc(-c3ccc(F)cc3)cs2)cc1
11.4 min | – | – | – | > 300 min | – | – | – | – | – | – | – | – | – | – | – | – | – | O=C(CCCCCCSC(=O)N1CCCC1)Nc1nc(-c2ccc(F)cc2)cs1
0.79 min | 28.2 min | 1.09 | 35.87 | > 300 min | 0.85 min | – | – | – | – | – | – | – | – | – | – | – | – | COC(=O)SCCCCCCC(=O)Nc1nc(-c2ccc(F)cc2)cs1
4.11 min | – | – | – | > 300 min | – | – | – | – | – | – | – | – | – | – | – | – | – | CC(C)(C)C(=O)SCCCCCCC(=O)Nc1nc(-c2ccc(F)cc2)cs1
4.81 min | 54.9 min | 10.62 | 8.53 | > 300 min | 68.3 min | 115 µL/min/mg | 203 µL/min/mg | 296 µL/min/mg | 288 µL/min/mg | 7.61 min | 7.42 min | 18.2 min | 10.4 min | 7.28 min | 7.1 min | 276 µL/min/mg | 283 µL/min/mg | CNC(=O)SCCCCCCC(=O)Nc1nc(-c2ccc(F)cc2)cs1
3.09 min | 22.8 min | 26.54 | 5.32 | > 300 min | 114 min | 351 µL/min/mg | 365 µL/min/mg | 708 µL/min/mg | 675 µL/min/mg | 2.94 min | 2.85 min | 5.99 min | 5.76 min | 3.11 min | 2.98 min | 716 µL/min/mg | 737 µL/min/mg | CN(C)C(=O)SCCCCCCC(=O)Nc1nc(-c2ccc(F)cc2)cs1
2.14 min | – | – | – | > 160 min | – | – | – | – | – | – | – | – | – | – | – | – | – | O=C(CCCCCCSC(=O)Cc1ccccc1)Nc1nc(-c2ccc(F)cc2)cs1
11.4 min | – | – | – | > 300 min | – | – | – | – | – | – | – | – | – | – | – | – | – | O=C(CCCCCCSC(=O)c1ccc2c(c1)OCCO2)Nc1nc(-c2ccc(F)cc2)cs1

— ChEMBL document CHEMBL6114955, “Probing into the plasma stability and microsomal stability of thiol-based prodrug derivatives: Using IYS-15, an HDAC inhibitor as the model thiol” (Bioorg Med Chem, 2025)
